Reference: publication PMC5738443, “Peptide aptamer-modified single-walled carbon nanotube-based transistors for high-performance biosensors” (Scientific Reports, 2017)
Residues, ends and D or L forms follow the SMILES beside them.

Experiments:
Cathepsin E (CatE) [1] = biological target: T1, Cathepsin E (CatE) (Homo sapiens, UniProt P14091); assay: SPR analysis (Biacore X100) of peptide aptamer binding to Cathepsin E; settings: Biacore X100, CM5 chip, aptamer immobilized via C-terminal biotin-streptavidin, 1000 RU; single-cycle, CatE 858.37-1.37 ng/mL; steady-state affinity; read-out: dissociation constant (Kd)
T1 construct: purchased BioVision, Inc. (CA, USA)
T1 sequence (P14091 54-396): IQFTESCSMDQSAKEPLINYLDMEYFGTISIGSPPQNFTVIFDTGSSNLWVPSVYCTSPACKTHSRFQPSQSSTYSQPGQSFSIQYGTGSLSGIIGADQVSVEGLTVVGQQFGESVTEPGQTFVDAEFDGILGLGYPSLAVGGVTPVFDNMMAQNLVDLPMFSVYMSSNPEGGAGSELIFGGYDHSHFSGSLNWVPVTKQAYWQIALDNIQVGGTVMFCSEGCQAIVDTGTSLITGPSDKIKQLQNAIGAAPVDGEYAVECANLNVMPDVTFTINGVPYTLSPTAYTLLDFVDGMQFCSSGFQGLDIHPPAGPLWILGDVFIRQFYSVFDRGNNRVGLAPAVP
Description: CatE is composed of an in vitro-selected peptide aptamer (24 amino acids comprising two peptide blocks of 12- and 8-amino acids paired by a 4-amino acid linker) and a short alpha-strand peptide scaffold (7-amino acids). A Biacore X100 instrument was used to characterize the binding features of the peptide aptamer to CatE. A free N-terminal end of the peptide aptamer is necessary for its correct folding as a basis for the formation of the binding complex with the target. Therefore, the C-terminal end of the peptide aptamer with biotin-streptavidin chemistry was immobilized onto a CM5 sensor chip, and then CatE was injected as the analyte across this surface for interaction with the peptide aptamer. […] The dissociation constant (Kd) for the CatE was calculated as 0.954 ± 0.067 nM.
Figure 3 Peptide aptamer characterization. […] The data for the steady-state affinity binding plot were calculated from the end of the association phases against the analyte concentration. […]
A novel peptide aptamer that specifically recognizes CatE was engineered via systemic in vitro evolution. […] A steady-state affinity binding plot was calculated from the end of the association phases against the analyte concentration.

Cathepsin E (CatE) [2] = biological target: T1, Cathepsin E (CatE); assay: CatE detection in PBS with peptide aptamer-modified liquid-gated SWCNT FET; assay type: binding; settings: aptamer on SWCNT FET via PBASE; CatE 0.1 to 1 ng/mL in 1× PBS pH 10, 10 min, 25 °C; measured in 0.0005× PBS pH 4, -0.6 V; read-out: Kd (Langmuir isotherm fit of FET response)
Experimental: The peptide aptamer was immobilized onto the SWCNT channel via the PBASE linker prior to the capture of CatE. Next, the sensor was exposed to 0.0005× PBS pH 4 for electrical measurements. […] The transfer curve of the SWCNT FET initially shifted toward the negative bias direction after the immobilization of the peptide aptamer. With increasing CatE concentrations from 0.1 to 0.6 ng/mL, the curve further shifted toward the same direction. This phenomenon is attributed to the positively charged CatE molecules at PBS pH 4 (the isoelectric point of CatE is 4.69) inducing the gradual reduction of hole carriers in the SWCNT channel via a field effect. At concentrations greater than this concentration, the shift of the transfer curve is no longer observed because all peptide aptamer probe molecules are occupied by CatE molecules. The relative decrease in the “on” current (∆I/∆Imax), where ∆Imax represents the decrease in “on” current at a saturation level due to the interaction between CatE and peptide aptamer-modified SWCNT FETs, at a top liquid-gated voltage of −0.6 V was plotted as a function of CatE concentration, as shown in Fig. 5b. […]
We measured the transfer characteristics of the fabricated sensor using a top liquid-gated scheme in 0.0005× PBS pH 4. […]

Compound: CC[C@H](C)[C@H](NC(=O)CNC(=O)CNC(=O)[C@H](CS)NC(=O)[C@@H](N)CO)C(=O)N[C@H](C(=O)N[C@H](C(=O)N[C@H](C(=O)N[C@@H](CO)C(=O)N[C@@H](CS)C(=O)N[C@H](C(=O)N[C@@H](C)C(=O)N[C@H](C(=O)N[C@H](C(=O)N[C@@H](CO)C(=O)N[C@@H](CC(C)C)C(=O)N[C@H](C(=O)N1CCC[C@H]1C(=O)NCC(=O)N[C@@H](CCCNC(=N)N)C(=O)N[C@H](C(=O)NCC(=O)N[C@@H](CS)C(=O)N[C@H](C(=O)N[C@@H](CCCNC(=N)N)C(=O)N[C@@H](C)C(=O)N[C@@H](CCCCN)C(=O)N[C@@H](C)C(=O)N[C@@H](C)C(=O)N[C@@H](C)C(=O)N[C@@H](CCCCN)C(=O)O)[C@@H](C)CC)[C@@H](C)CC)[C@@H](C)CC)[C@@H](C)CC)C(C)C)[C@@H](C)CC)[C@@H](C)CC)[C@@H](C)CC)[C@@H](C)CC [peptide aptamer] (H-SCGGIIIISCIAVISLIPGRIGCIRAKAAAK-OH)
- Kd (Cathepsin E (CatE) [1]): 0.954 nM
- Kd (Cathepsin E (CatE) [2]): 0.00277 nM
